Assay results reported in patent US12599136B2, “Substituted isophthalic acid diamides and their use as herbicides” (Bayer Aktiengesellschaft, priority 2020, dated 2026).

Key:
Format in all cases: in vivo
Veronica persica [1] = assay: Pre-emergence herbicidal action against VERPE; conditions: 80 g/ha
Procedure, shortened: (§1)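 Herbicidal effect was assessed 3 weeks after treatment by visual comparison with untreated controls, 100% denoting dead plants. Aqueous WP or EC preparations had been applied at 600 to 800 l/ha with 0.2% wetting agent to the soil covering freshly sown seeds.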

Alopecurus myosuroides [2] = assay: Post-emergence herbicidal action against ALOMY
Procedure, shortened: (§2)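 Post-emergence greenhouse test; one-leaf stage, 2–3 wk post-sowing, sandy loam. Foliar spray of WP/EC in water, 600–800 l/ha, +0.2% wetting agent. Visual % action at ~3 wk vs untreated (100% = plants dead).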

Digitaria sanguinalis [3] = assay: Pre-emergence herbicidal action against DIGSA
Procedure, shortened: as §1

Lolium rigidum = assay: Pre-emergence herbicidal action against LOLRI; conditions: 80 g/ha
Description: Seeds of monocotyledonous and dicotyledonous weed plants and crop plants are laid out in sandy loam soil in wood-fiber pots and covered with soil. The compounds of the invention, formulated in the form of wettable powders (WP) or as emulsion concentrates (EC), are then applied to the surface of the covering soil in the form of an aqueous suspension or emulsion at a water application rate equivalent to 600 to 800 l/ha, with addition of 0.2% wetting agent. After the treatment, the pots are placed in a greenhouse and kept under good growth conditions for the trial plants. The damage to the test plants is scored visually after a test period of 3 weeks by comparison with untreated controls (herbicidal activity in percent (%): 100% activity=the plants have died, 0% activity=like control plants). […] The tables below illustrate, in an illustrative manner, the post-emergence herbicidal action of the compounds of the invention, the herbicidal activity being stated in percent.

Matricaria inodora [4] = assay: Pre-emergence herbicidal action against MATIN; conditions: visual score after 3 weeks vs untreated controls
Procedure, shortened: as §1

Viola tricolor [5] = assay: Pre-emergence herbicidal action against VIOTR; conditions: for Pre-emergence action against VIOTR: 80 g/ha
Procedure, shortened: as §1

Digitaria sanguinalis [6] = assay: Post-emergence herbicidal action against DIGSA
Procedure: Seeds of monocotyledonous and dicotyledonous weed and crop plants are laid out in sandy loam soil in wood-fiber pots, covered with soil and cultivated in a greenhouse under good growth conditions. 2 to 3 weeks after sowing, the test plants are treated at the one-leaf stage. The compounds of the invention, formulated in the form of wettable powders (WP) or as emulsion concentrates (EC), are then sprayed onto the green parts of the plants in the form of an aqueous suspension or emulsion at a water application rate equivalent to 600 to 800 l/ha, with addition of 0.2% wetting agent. After the test plants have been left to stand in the greenhouse under optimal growth conditions for about 3 weeks, the action of the preparations is assessed visually in comparison to untreated controls (herbicidal action in percent (%): 100% activity=the plants have died, 0% activity=like control plants). […] The tables below illustrate, in an illustrative manner, the post-emergence herbicidal action of the compounds of the invention, the herbicidal activity being stated in percent.

Avena fatua [7] = assay: Pre-emergence herbicidal action against AVEFA; conditions: for Pre-emergence action against AVEFA: visual score after 3 weeks vs untreated controls; for Herbicidal action against AVEFA: comparative experiment, pre-emergence
Procedure, shortened: as §1

Amaranthus retroflexus [8] = assay: Post-emergence herbicidal action against AMARE; conditions: visual assessment about 3 weeks after treatment
Procedure, shortened: as §2

Amaranthus retroflexus [9] = assay: Pre-emergence herbicidal action against AMARE; conditions: visual score after 3 weeks vs untreated controls
Procedure, shortened: as §1

Matricaria inodora [10] = assay: Post-emergence herbicidal action against MATIN; conditions: for Post-emergence action against MATIN in %: visual assessment about 3 weeks after treatment
Procedure, shortened: as §2

Polygonum convolvulus = assay: Pre-emergence herbicidal action against POLCO; conditions: 80 g/ha
Procedure, shortened: as §1

Setaria viridis [11] = assay: Post-emergence herbicidal action against SETVI; conditions: for Post-emergence action against SETVI in %: visual assessment about 3 weeks after treatment
Procedure, shortened: as §2

Alopecurus myosuroides [12] = assay: Pre-emergence herbicidal action against ALOMY; conditions: for Pre-emergence action against ALOMY: visual score after 3 weeks vs untreated controls; for Herbicidal action against ALOMY: comparative experiment, pre-emergence
Procedure, shortened: as §1

Abutilon theophrasti [13] = assay: Pre-emergence herbicidal action against ABUTH; conditions: for Pre-emergence action against ABUTH: visual score after 3 weeks vs untreated controls; for Herbicidal action against ABUTH: comparative experiment, pre-emergence
Procedure, shortened: as §1

Echinochloa crus-galli [14] = assay: Pre-emergence herbicidal action against ECHCG; conditions: for Pre-emergence action against ECHCG: 80 g/ha, visual score after 3 weeks vs untreated controls; for Herbicidal action against ECHCG: comparative experiment, pre-emergence
Procedure, shortened: as §1

Viola tricolor [15] = assay: Post-emergence herbicidal action against VIOTR
Procedure, shortened: as §2

Abutilon theophrasti [16] = assay: Post-emergence herbicidal action against ABUTH
Procedure, shortened: as §2

Echinochloa crus-galli [17] = assay: Post-emergence herbicidal action against ECHCG; conditions: visual assessment about 3 weeks after treatment
Procedure, shortened: as §2

Setaria viridis [18] = assay: Pre-emergence herbicidal action against SETVI; conditions: for Pre-emergence action against SETVI: 80 g/ha; for Herbicidal action against SETVI: comparative experiment
Procedure, shortened: as §1

Pharbitis purpurea = assay: Post-emergence herbicidal action against PHBPU; conditions: for Post-emergence action against PHBPU in %: visual assessment about 3 weeks after treatment
Procedure, shortened: as §2

Veronica persica [19] = assay: Post-emergence herbicidal action against VERPE; conditions: 20 g/ha, visual assessment about 3 weeks after treatment
Procedure, shortened: as §2

Avena fatua [20] = assay: Post-emergence herbicidal action against AVEFA; conditions: 20 g/ha, visual assessment about 3 weeks after treatment
Procedure, shortened: as §2

[21] = comparative experiment, 5 g a.i./ha

With CN(C)C(=O)c1c(C(F)F)ccc(C(=O)Nc2nnnn2C)c1Cl [Example 1-154] the “Pre-emergence action against VERPE” value (Veronica persica [1]) was 80%, the “Post-emergence action against ALOMY” value (Alopecurus myosuroides [2]; 5 g/ha) was 90% and the “Post-emergence action against ALOMY” value (Alopecurus myosuroides [2]; 20 g/ha) was 100%. For the same compound, the “Herbicidal action against ALOMY” value (Alopecurus myosuroides [2]; [21]) was 90, the “Pre-emergence action against DIGSA” value (Digitaria sanguinalis [3]; 20 g/ha) was 100% and the “Pre-emergence action against DIGSA” value (Digitaria sanguinalis [3]; 80 g/ha) was 100%. The “Pre-emergence action against LOLRI” value (Lolium rigidum) was 90%, the “Pre-emergence action against MATIN” value (Matricaria inodora [4]; 20 g/ha) was 80% and the “Pre-emergence action against MATIN” value (Matricaria inodora [4]; 80 g/ha) was 90%. For the same compound, the “Pre-emergence action against VIOTR” value (Viola tricolor [5]) was 100%, the “Herbicidal action against VIOTR” value (Viola tricolor [5]; comparative experiment, 80 g a.i./ha) was 100 and the “Post-emergence action against DIGSA in %” value (Digitaria sanguinalis [6]; 5 g/ha) was 90%. For the same compound, the “Post-emergence action against DIGSA in %” value (Digitaria sanguinalis [6]; 20 g/ha) was 90%, the “Pre-emergence action against AVEFA” value (Avena fatua [7]; 20 g/ha) was 80% and the “Pre-emergence action against AVEFA” value (Avena fatua [7]; 80 g/ha) was 100%. The “Herbicidal action against AVEFA” value (Avena fatua [7]; 20 g a.i./ha) was 50, the “Herbicidal action against AVEFA” value (Avena fatua [7]; 80 g a.i./ha) was 100 and the “Post-emergence action against AMARE in %” value (Amaranthus retroflexus [8]; 5 g/ha) was 90%. The “Post-emergence action against AMARE in %” value (Amaranthus retroflexus [8]; 20 g/ha) was 100%, the “Pre-emergence action against AMARE” value (Amaranthus retroflexus [9]; 20 g/ha) was 90% and the “Pre-emergence action against AMARE” value (Amaranthus retroflexus [9]; 80 g/ha) was 100%. For the same compound, the “Post-emergence action against MATIN in %” value (Matricaria inodora [10]; 5 g/ha) was 80%, the “Post-emergence action against MATIN in %” value (Matricaria inodora [10]; 20 g/ha) was 90% and the “Herbicidal action against MATIN” value (Matricaria inodora [10]; [21]) was 80. The “Pre-emergence action against POLCO” value (Polygonum convolvulus) was 80%, the “Post-emergence action against SETVI in %” value (Setaria viridis [11]; 5 g/ha) was 100% and the “Post-emergence action against SETVI in %” value (Setaria viridis [11]; 20 g/ha) was 100%. The “Herbicidal action against SETVI” value (Setaria viridis [11]; [21]) was 100, the “Pre-emergence action against ALOMY” value (Alopecurus myosuroides [12]; 20 g/ha) was 90% and the “Pre-emergence action against ALOMY” value (Alopecurus myosuroides [12]; 80 g/ha) was 100%. The “Herbicidal action against ALOMY” value (Alopecurus myosuroides [12]; 20 g a.i./ha) was 70, the “Herbicidal action against ALOMY” value (Alopecurus myosuroides [12]; 80 g a.i./ha) was 100 and the “Pre-emergence action against ABUTH” value (Abutilon theophrasti [13]; 80 g/ha) was 100%. The “Herbicidal action against ABUTH” value (Abutilon theophrasti [13]; 20 g a.i./ha) was 100, the “Herbicidal action against ABUTH” value (Abutilon theophrasti [13]; 80 g a.i./ha) was 100 and the “Pre-emergence action against ECHCG” value (Echinochloa crus-galli [14]) was 100%. For the same compound, the “Herbicidal action against ECHCG” value (Echinochloa crus-galli [14]; 20 g a.i./ha) was 80, the “Herbicidal action against ECHCG” value (Echinochloa crus-galli [14]; 80 g a.i./ha) was 100 and the “Post-emergence action against VIOTR in %” value (Viola tricolor [15]; 5 g/ha) was 100%. The “Post-emergence action against VIOTR in %” value (Viola tricolor [15]; 20 g/ha) was 100%, the “Herbicidal action against VIOTR” value (Viola tricolor [15]; [21]) was 100 and the “Post-emergence action against ABUTH” value (Abutilon theophrasti [16]; 5 g/ha) was 100%. For the same compound, the “Post-emergence action against ABUTH” value (Abutilon theophrasti [16]; 20 g/ha) was 100%, the “Herbicidal action against ABUTH” value (Abutilon theophrasti [16]; [21]) was 100 and the “Post-emergence action against ECHCG in %” value (Echinochloa crus-galli [17]; 5 g/ha) was 90%. For the same compound, the “Post-emergence action against ECHCG in %” value (Echinochloa crus-galli [17]; 20 g/ha) was 90%, the “Pre-emergence action against SETVI” value (Setaria viridis [18]) was 100% and the “Herbicidal action against SETVI” value (Setaria viridis [18]; 20 g a.i./ha) was 90. For the same compound, the “Herbicidal action against SETVI” value (Setaria viridis [18]; 80 g a.i./ha) was 100, the “Post-emergence action against PHBPU in %” value (Pharbitis purpurea; 5 g/ha) was 80% and the “Post-emergence action against PHBPU in %” value (Pharbitis purpurea; 20 g/ha) was 90%. The “Herbicidal action against PHBPU” value (Pharbitis purpurea; [21]) was 80.

With CCN(C)C(=O)c1c(C(F)F)ccc(C(=O)Nc2nnnn2C)c1Cl [Example 1-155] the “Pre-emergence action against VERPE” value (Veronica persica [1]) was 90%, the “Post-emergence action against ALOMY” value (Alopecurus myosuroides [2]; 5 g/ha) was 80% and the “Post-emergence action against ALOMY” value (Alopecurus myosuroides [2]; 20 g/ha) was 90%. The “Pre-emergence action against LOLRI” value (Lolium rigidum) was 80%, the “Post-emergence action against VERPE in %” value (Veronica persica [19]) was 80% and the “Pre-emergence action against MATIN” value (Matricaria inodora [4]; 20 g/ha) was 90%. For the same compound, the “Pre-emergence action against MATIN” value (Matricaria inodora [4]; 80 g/ha) was 100%, the “Pre-emergence action against VIOTR” value (Viola tricolor [5]) was 100% and the “Post-emergence action against DIGSA in %” value (Digitaria sanguinalis [6]; 5 g/ha) was 80%. The “Post-emergence action against DIGSA in %” value (Digitaria sanguinalis [6]; 20 g/ha) was 80%, the “Pre-emergence action against AVEFA” value (Avena fatua [7]; 80 g/ha) was 90% and the “Post-emergence action against AMARE in %” value (Amaranthus retroflexus [8]; 5 g/ha) was 100%. For the same compound, the “Post-emergence action against AMARE in %” value (Amaranthus retroflexus [8]; 20 g/ha) was 100%, the “Pre-emergence action against AMARE” value (Amaranthus retroflexus [9]; 20 g/ha) was 100% and the “Pre-emergence action against AMARE” value (Amaranthus retroflexus [9]; 80 g/ha) was 100%. For the same compound, the “Post-emergence action against MATIN in %” value (Matricaria inodora [10]; 20 g/ha) was 90%, the “Post-emergence action against AVEFA in %” value (Avena fatua [20]) was 80% and the “Post-emergence action against SETVI in %” value (Setaria viridis [11]; 5 g/ha) was 80%. The “Post-emergence action against SETVI in %” value (Setaria viridis [11]; 20 g/ha) was 90%, the “Pre-emergence action against ALOMY” value (Alopecurus myosuroides [12]; 80 g/ha) was 90% and the “Pre-emergence action against ABUTH” value (Abutilon theophrasti [13]; 20 g/ha) was 100%. For the same compound, the “Pre-emergence action against ABUTH” value (Abutilon theophrasti [13]; 80 g/ha) was 100%, the “Pre-emergence action against ECHCG” value (Echinochloa crus-galli [14]) was 100% and the “Post-emergence action against VIOTR in %” value (Viola tricolor [15]; 20 g/ha) was 80%. For the same compound, the “Post-emergence action against ABUTH” value (Abutilon theophrasti [16]; 5 g/ha) was 90%, the “Post-emergence action against ABUTH” value (Abutilon theophrasti [16]; 20 g/ha) was 90% and the “Post-emergence action against ECHCG in %” value (Echinochloa crus-galli [17]; 20 g/ha) was 90%. The “Pre-emergence action against SETVI” value (Setaria viridis [18]) was 100%, the “Post-emergence action against PHBPU in %” value (Pharbitis purpurea; 5 g/ha) was 80% and the “Post-emergence action against PHBPU in %” value (Pharbitis purpurea; 20 g/ha) was 80%.
